Test results from patent US20080287541A1, “Kit for Treatment of Cancer” (Redoxia Israel Ltd., priority 2004, published 2008).
Several values for one entry are separate records, joined by “and”; a condition that tells them apart may be missing. Identical values can stand only once.

Legend:
various cell lines = details: BSO by itself; Dai et al. (1999); cited from earlier work
neuroblastoma cells = details: Nicole et al. (1998); cited from earlier work
[1] = tested on: MX-1 mammary carcinoma cells; assay: 3H-Thymidine incorporation (proliferation) assay; type: cell-based, human; details: positive control, 10^−5 M doxorubicin; negative control = 100%
Procedure: Test compounds: Tested substances were dissolved in the appropriate medium as follows: carmustine (Sigma) was dissolved in ethanol, disulfiram (DSF) (Sigma) and curcumin (Fluka) were dissolved in dimethyl sulfoxide (DMSO), and DL-buthionine-sulfoximine (BSO) (Fluka) was dissolved in growth medium.
Compounds were added in a 1:10 serial dilution to the wells to obtain range of 10^−3 M to 10^−8 M final concentrations.
Controls: Positive control—10^−5M Doxorubicin. Negative control—Media containing the compound's solvent.
Cell lines: MX-1 mammary carcinoma cells were grown in RPMI-1640 medium, supplemented with 10% FBS, 2 mM L-glutamine, 1% penicillin/streptomycin and 1% non-essential amino acids.
MX-1 culturing and sub-culturing: MX-1 cells were grown in 75 cm^2 culture flasks. The culture medium was changed every other day and the day before the experiment. […]
Thymidine incorporation (proliferation) assay and cells harvesting: 24 hours after administering the compounds, to each well in the culture plates, ^3H-thymidine (NET-027 Thymidine [methyl-^3H] from NEN, 6.7 Ci/mmol) was added to final concentration of 0.4 μCi/well. […] Radioactivity was determined after adding 180 μl scintillation liquid (Microscint 20™, Packard).
Data calculation: The data represent the mean amount of thymidine counted per well (CPM). Average and standard deviation (SD) were calculated for each plate (12 wells). […]

| SMILES | decrease in [GSH] in the cell (various cell lines) [%] | decrease of GSH content (neuroblastoma cells) [%] | Cell proliferation rate [1] |
| --- | --- | --- | --- |
| CCCCS(=N)(=O)CCC(N)C(=O)O (racemic) [BSO, buthionine sulfoximine] | 70 | 98 |  |
| COc1cccc2c1C(=O)c1c(O)c3c(c(O)c1C2=O)C[C@@](O)(C(=O)CO)C[C@@H]3O[C@H]1C[C@H](N)[C@H](O)[C@H](C)O1 [doxorubicin, Doxorubicin] |  |  | 4-11% and 4% |
